Experimental findings from patent US20230022724A1, “NOVEL IMIDAZOPYRAZINE DERIVATIVES” (Hoffmann-La Roche Inc., priority 2018, published 2023) are described below.

What is called IC90 is the point of the concentration-response curve where the effect stands at 90%.

Where a name gives a salt, the structure may show the parent alone.

One assay has as its system Acinetobacter baumannii ATCC17978. As to the kind of experiment: Antimicrobial susceptibility testing: 90% growth inhibitory concentration (IC90) determination. In kind it is cell-based. The settings on record: 90% growth inhibitory concentration, Acinetobacter baumannii ATCC17978, Iso-Sensitest broth, OD 600 nm over 16 h; read-out: ATCC17978 IC90. In a few lines:
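Compounds in twofold series (e.g. 50 to 0.097 μM final) in Iso-Sensitest broth, inoculated at ~5×10^5 CFU/ml, incubated at 35±2° C. OD600 was read every 20 minutes for 16 h. IC90 was derived from growth inhibition during logarithmic phase.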
As for `COc1ccc(-c2cnc3c(Nc4ccc(C(=O)N5CCC(C(=O)NCC6CNC6)CC5)c(Cl)c4)nccn23)cc1F` [Example 19, N-(azetidin-3-ylmethyl)-1-(2-chloro-4-((3-(3-fluoro-4-methoxyphenyl)imidazo[1,2-a]pyrazin-8-yl)amino)benzoyl)piperidine-4-carboxamide], the IC90 was 0.3 µM.

Regarding `CNCC(=O)N1CCN(C(=O)c2ccc(Nc3nccn4c(-c5ccc(OC)c(F)c5)cnc34)cc2Cl)CC1` [Example 40, 1-(4-(2-chloro-4-((3-(3-fluoro-4-methoxyphenyl)imidazo [1,2-a]pyrazin-8-yl)amino)benzoyl)piperazin-1-yl)-2-(methylamino)ethanone], the IC90 stood at 0.15 µM.

Staying with this assay, now noted: Acinetobacter baumannii, ATCC17978, 16 h, 90% growth inhibitory concentration, Acinetobacter baumannii ATCC17978, Iso-Sensitest broth, OD 600 nm over 16 h; read-out: ATCC17978 IC90.
As to `CNCCN1CCN(C(=O)c2ccc(Nc3nccn4c(-c5ccc(OCC#N)c(F)c5F)cnc34)cc2Cl)CC1` [Example 91, 2-[4-[8-[3-chloro-4-[4-[2-(methylamino)ethyl]piperazine-1-carbonyl]anilino]imidazo[1,2-a]pyrazin-3-yl]-2,3-difluorophenoxy]acetonitrile; 2,2,2-trifluoroacetic acid], the concentration for an effect of 90% (IC90) was 0.049 µM.

For `COc1ccc(-c2cnc3c(Nc4ccc(C(=O)N5CCOCC5)cc4)nccn23)cc1Cl` [Example 38, (4-((3-(3-chloro-4-methoxyphenyl)imidazo[1,2-a]pyrazin-8-yl)amino)phenyl)(morpholino)methanone], the IC90 came out at 0.57 µM.

For the compound `COc1ccc(-c2cnc3c(Nc4ccc(C(=O)N5CCN(C)CC5)cc4)nccn23)cc1` [Example 64, [4-[[3-(4-methoxyphenyl)imidazo[1,2-a]pyrazin-8-yl]amino]phenyl]-(4-methylpiperazin-1-yl)methanone], the IC90 came to 1.4 µM.

Turning to `COc1ccc(-c2cnc3c(Nc4ccc(C(=O)N5CCN(CCN(C)C)CC5)c(Cl)c4)nccn23)cc1F` [Example 55, [2-chloro-4-[[3-(3-fluoro-4-methoxyphenyl)imidazo[1,2-a]pyrazin-8-yl]amino]phenyl]-[4-[2-(dimethylamino)ethyl]piperazin-1-yl]methanone;hydrochloride], the IC90 came to 0.14 µM.

In the case of `COc1ccc(-c2cnc3c(Nc4ccc(C(=O)N5CCN(CCNCCO)CC5)c(Cl)c4)nccn23)cc1F` [Example 43, (2-Chloro-4-((3-(3-fluoro-4-methoxyphenyl)imidazo[1,2-a]pyrazin-8-yl)amino)phenyl)(4-(2-((2-hydroxyethyl)amino)ethyl)piperazin-1-yl)methanone], the IC90 was found to be 0.14 µM.

For `COc1ccc(-c2cnc3c(Nc4ccc(C(=O)N5CCN(CCN6CCC6)CC5)c(Cl)c4)nccn23)cc1F` [Example 57, [4-[2-(azetidin-1-yl)ethyl]piperazin-1-yl]-[2-chloro-4-[[3-(3-fluoro-4-methoxyphenyl)imidazo[1,2-a]pyrazin-8-yl]amino]phenyl]methanone], the IC90 turned out to be 0.33 µM.

On to `N#CCOc1ccc(-c2cnc3c(Nc4ccc(C(=O)N5CCN(C(=O)N6CCN[C@@H](CO)C6)CC5)c(Cl)c4)nccn23)c(F)c1F` [Example 36, 2-[4-[8-[3-chloro-4-[4-[(3R)-3-(hydroxymethyl)piperazine-1-carbonyl]piperazine-1-carbonyl]anilino]imidazo[1,2-a]pyrazin-3-yl]-2,3-difluoro-phenoxy]acetonitrile], for which the IC90 was determined as 0.041 µM.

Turning to `C#CCOc1ccc(-c2cnc3c(Nc4ccc(C(=O)N5CCC(CN)CC5)c(Cl)c4)nccn23)c(F)c1F` [Example 75, [4-(aminomethyl)piperidin-1-yl]-[2-chloro-4-[[3-(2,3-difluoro-4-prop-2-ynoxyphenyl)imidazo[1,2-a]pyrazin-8-yl]amino]phenyl]methanone], the concentration for an effect of 90% (IC90) came out at 0.085 µM.

As for `N#CCOc1ccc(-c2cnc3c(Nc4ccc(C(=O)N5CCC(n6cnnc6)CC5)c(Cl)c4)nccn23)c(F)c1F` [Example 24, 2-[4-[8-[3-chloro-4-[4-(1,2,4-triazol-4-yl)piperidine-1-carbonyl]anilino]imidazo[1,2-a]pyrazin-3-yl]-2,3-difluoro-phenoxy]acetonitrile], the 90% effect concentration (IC90) is 0.15 µM.

In the case of `COc1ccc(-c2cnc3c(Nc4ccc(C(=O)N5CCC(C(=O)NCC(O)CN)CC5)c(Cl)c4)nccn23)cc1F` (stereo not shown) [Example 60, N-(3-amino-2-hydroxypropyl)-1-[2-chloro-4-[[3-(3-fluoro-4-methoxyphenyl)imidazo[1,2-a]pyrazin-8-yl]amino]benzoyl]piperidine-4-carboxamide;hydrochloride], the IC90 amounted to 0.14 µM.

For the compound `COc1ccc(-c2cnc3c(Nc4ccc(C(=O)N5CCC(C(=O)N6CCNC(CO)C6)CC5)c(Cl)c4)nccn23)cc1F` (stereo not shown) [Example 70, [2-chloro-4-[[3-(3-fluoro-4-methoxyphenyl)imidazo[1,2-a]pyrazin-8-yl]amino]phenyl]-[4-[3-(hydroxymethyl)piperazine-1-carbonyl]piperidin-1-yl]methanone;hydrochloride], the IC90 stood at 0.27 µM.

In the case of `COc1ccc(-c2cnc3c(Nc4ccc(C(=O)N5CC5)c(Cl)c4)nccn23)c(F)c1F` [Example 9, aziridin-1-yl(2-chloro-4-((3-(2,3-difluoro-4-methoxyphenyl)imidazo[1,2-a]pyrazin-8-yl)amino)phenyl)methanone], the 90% effect concentration (IC90) is 1.6 µM.

Consider `COc1ccc(-c2cnc3c(Nc4ccc(C(=O)N5CCC(CN)CC5)c(Cl)c4)nccn23)c(F)c1F` [Example 8, (4-(aminomethyl)piperidin-1-yl)(2-chloro-4-((3-(2,3-difluoro-4-methoxyphenyl)imidazo[1,2-a]pyrazin-8-yl)amino)phenyl)methanone], for which the 90% effect concentration (IC90) amounted to 0.17 µM.

For `COc1ccc(-c2cnc3c(Nc4ccc(C(=O)N5CCN(C)CC5)cc4)nccn23)cc1Cl` [Example 74, [4-[[3-(3-chloro-4-methoxyphenyl)imidazo[1,2-a]pyrazin-8-yl]amino]phenyl]-(4-methylpiperazin-1-yl)methanone], the concentration for an effect of 90% (IC90) was found to be 2.7 µM.

The assay is the same for the next values; noted with them: Acinetobacter baumannii, ATCC17978, 16 h, read-out: ATCC17978 IC90.
Regarding `N#CCOc1ccc(-c2cnc3c(Nc4ccc(C(=O)N5CCC(C(=O)N6CCN[C@@H](CO)C6)CC5)c(Cl)c4)nccn23)c(Cl)c1F` [Example 86, 2-[3-chloro-4-[8-[3-chloro-4-[4-[(3R)-3-(hydroxymethyl)piperazine-1-carbonyl]piperidine-1-carbonyl]anilino]imidazo[1,2-a]pyrazin-3-yl]-2-fluorophenoxy]acetonitrile; formic acid], the IC90 stood at 0.049 µM.

`CNCCNC(=O)C1CCN(C(=O)c2ccc(Nc3nccn4c(-c5ccc(OC)c(F)c5)cnc34)cc2Br)CC1` [Example 44, 1-(2-bromo-4-((3-(3-fluoro-4-methoxyphenyl)imidazo[1,2-a]pyrazin-8-yl)amino)benzoyl)-N-(2-(methylamino)ethyl)piperidine-4-carboxamide; Formic Acid]: the IC90 was 0.3 µM.

For `N#CCOc1ccc(-c2cnc3c(Nc4ccc(C(=O)N5CCC(C(=O)N6CCN[C@H](C(=O)O)C6)CC5)c(Cl)c4)nccn23)c(F)c1F` [Example 45, (2S)-4-[1-[2-chloro-4-[[3-[4-(cyanomethoxy)-2,3-difluoro-phenyl]imidazo[1,2-a]pyrazin-8-yl]amino]benzoyl]piperidine-4-carbonyl]piperazine-2-carboxylic Acid; Formic Acid], the concentration for an effect of 90% (IC90) was found to be 0.88 µM.

On to `N#CCOc1ccc(-c2cnc3c(Nc4ccc(C(=O)N5CCN(CCN6CCC(CO)C6)CC5)c(Cl)c4)nccn23)c(F)c1F` (stereo not shown) [Example 90, 2-[4-[8-[3-chloro-4-[4-[2-[3-(hydroxymethyl)pyrrolidin-1-yl]ethyl]piperazine-1-carbonyl]anilino]imidazo[1,2-a]pyrazin-3-yl]-2,3-difluorophenoxy]acetonitrile; 2,2,2-trifluoroacetic acid], for which the 90% effect concentration (IC90) turned out to be 0.043 µM.

Regarding `COc1ccc(-c2cnc3c(Nc4ccc(C(=O)N5CCN(C(=O)C(O)CN)CC5)c(Cl)c4)nccn23)cc1F` (stereo not shown) [Example 56, 3-amino-1-[4-[2-chloro-4-[[3-(3-fluoro-4-methoxyphenyl)imidazo[1,2-a]pyrazin-8-yl]amino]benzoyl]piperazin-1-yl]-2-hydroxypropan-1-one; hydrochloride], the concentration for an effect of 90% (IC90) worked out at 0.24 µM.

With `CN(C)C1CCN(CCN2CCN(C(=O)c3ccc(Nc4nccn5c(-c6ccc(OCC#N)c(F)c6F)cnc45)cc3Cl)CC2)CC1` [Example 101, 2-[4-[8-[3-chloro-4-[4-[2-[4-(dimethylamino)piperidin-1-yl]ethyl]piperazine-1-carbonyl]anilino]imidazo[1,2-a]pyrazin-3-yl]-2,3-difluorophenoxy]acetonitrile; 2,2,2-trifluoroacetic acid], the IC90 was 0.17 µM.

With `N#CCOc1ccc(-c2cnc3c(Nc4ccc(C(=O)N5CCN(CCN6CCC(C(=O)O)C6)CC5)c(Cl)c4)nccn23)c(F)c1F` (stereo not shown) [Example 47, 1-[2-[4-[2-chloro-4-[[3-[4-(cyanomethoxy)-2,3-difluoro-phenyl]imidazo[1,2-a]pyrazin-8-yl]amino]benzoyl]piperazin-1-yl]ethyl]pyrrolidine-3-carboxylic Acid Trifluoroacetate], the IC90 turned out to be 0.43 µM.

On to `Cc1cc(Nc2nccn3c(-c4ccc(OC(F)F)cc4)cnc23)ccc1C(=O)N1CCN(C(=O)N2CCN[C@H](C(=O)O)C2)CC1` [Example 82, (2S)-4-[4-[4-[[3-[4-(difluoromethoxy)phenyl]imidazo [1,2-a]pyrazin-8-yl]amino]-2-methylbenzoyl]piperazine-1-carbonyl]piperazine-2-carboxylic acid;hydrochloride], for which the IC90 was found to be 1 µM.

With `N#CCOc1ccc(-c2cnc3c(Nc4ccc(C(=O)N5CCN(CCN6CC(O)C6)CC5)c(Cl)c4)nccn23)c(F)c1F` [Example 96, 2-[4-[8-[3-chloro-4-[4-[2-(3-hydroxyazetidin-1-yl)ethyl]piperazine-1-carbonyl]anilino]imidazo[1,2-a]pyrazin-3-yl]-2,3-difluorophenoxy]acetonitrile; 2,2,2-trifluoroacetic acid], the concentration for an effect of 90% (IC90) stood at 0.073 µM.
